Like-named read-outs stand apart in the source and are kept apart here.
Tests used:
[1] = system: KM-12 cells; assay: KM-12 anchorage dependent cell proliferation (CellTiter-Glo); type: cell-based; settings: read-out: IC50 KM-12 cell proliferation (anchorage dependent)
[2] = target: T1, AXL (Homo sapiens, UniProt P30530); assay: scanMAX kinase panel
T1 sequence (P30530 26-894): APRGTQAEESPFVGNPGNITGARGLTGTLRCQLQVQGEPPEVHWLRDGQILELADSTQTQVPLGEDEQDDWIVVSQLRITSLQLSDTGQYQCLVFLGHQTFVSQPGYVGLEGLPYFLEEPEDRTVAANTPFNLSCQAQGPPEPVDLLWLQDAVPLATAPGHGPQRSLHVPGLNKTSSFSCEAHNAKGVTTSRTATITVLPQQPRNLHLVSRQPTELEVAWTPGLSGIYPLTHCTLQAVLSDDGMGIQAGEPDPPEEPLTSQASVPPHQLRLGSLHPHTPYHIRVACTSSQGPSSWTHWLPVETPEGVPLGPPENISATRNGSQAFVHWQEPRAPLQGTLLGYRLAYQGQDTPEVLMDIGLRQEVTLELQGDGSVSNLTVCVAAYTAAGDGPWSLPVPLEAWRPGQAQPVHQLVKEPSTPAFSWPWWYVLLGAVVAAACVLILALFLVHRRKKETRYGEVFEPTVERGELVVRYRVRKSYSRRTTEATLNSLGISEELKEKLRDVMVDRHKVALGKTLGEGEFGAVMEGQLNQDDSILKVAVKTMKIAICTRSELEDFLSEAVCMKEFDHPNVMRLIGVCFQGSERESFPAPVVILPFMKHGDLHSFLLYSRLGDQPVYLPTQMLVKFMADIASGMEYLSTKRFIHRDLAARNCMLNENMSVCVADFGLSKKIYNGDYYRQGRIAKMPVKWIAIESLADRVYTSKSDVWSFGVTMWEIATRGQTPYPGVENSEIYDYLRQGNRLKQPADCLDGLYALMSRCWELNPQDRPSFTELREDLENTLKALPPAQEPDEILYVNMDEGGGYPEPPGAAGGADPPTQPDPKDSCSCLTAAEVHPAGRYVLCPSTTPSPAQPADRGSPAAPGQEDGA

[3] = target: PDGFRA (Homo sapiens, UniProt P16234); assay: scanMAX kinase panel
Sequence of PDGFRA (P16234 24-1089): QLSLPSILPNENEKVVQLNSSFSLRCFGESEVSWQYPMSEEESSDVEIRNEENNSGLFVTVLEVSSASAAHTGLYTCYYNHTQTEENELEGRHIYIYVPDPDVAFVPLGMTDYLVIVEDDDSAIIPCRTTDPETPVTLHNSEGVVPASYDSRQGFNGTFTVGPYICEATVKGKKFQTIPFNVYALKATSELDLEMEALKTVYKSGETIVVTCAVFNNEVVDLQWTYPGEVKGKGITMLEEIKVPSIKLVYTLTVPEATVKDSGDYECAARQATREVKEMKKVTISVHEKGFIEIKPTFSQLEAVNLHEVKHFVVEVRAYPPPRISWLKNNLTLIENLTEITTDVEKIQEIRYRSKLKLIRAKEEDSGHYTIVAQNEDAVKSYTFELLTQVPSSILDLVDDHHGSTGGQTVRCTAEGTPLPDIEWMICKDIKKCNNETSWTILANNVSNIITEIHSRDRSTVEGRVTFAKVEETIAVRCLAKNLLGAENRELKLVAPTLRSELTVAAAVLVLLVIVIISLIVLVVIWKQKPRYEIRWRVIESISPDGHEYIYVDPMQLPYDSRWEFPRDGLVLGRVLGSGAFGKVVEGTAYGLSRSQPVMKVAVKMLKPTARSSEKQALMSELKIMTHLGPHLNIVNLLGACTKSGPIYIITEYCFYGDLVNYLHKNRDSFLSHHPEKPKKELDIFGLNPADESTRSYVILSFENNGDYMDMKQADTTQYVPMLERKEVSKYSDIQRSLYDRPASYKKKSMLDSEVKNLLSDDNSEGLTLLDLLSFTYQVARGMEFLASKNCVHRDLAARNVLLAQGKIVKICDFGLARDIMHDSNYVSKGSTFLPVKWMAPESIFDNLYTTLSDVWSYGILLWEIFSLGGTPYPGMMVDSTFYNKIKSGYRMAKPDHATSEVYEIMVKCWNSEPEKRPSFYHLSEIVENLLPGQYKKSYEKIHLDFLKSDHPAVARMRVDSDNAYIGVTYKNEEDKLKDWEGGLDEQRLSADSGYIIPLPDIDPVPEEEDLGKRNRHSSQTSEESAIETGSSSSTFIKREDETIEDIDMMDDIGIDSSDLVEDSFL

[4] = target: T2, FLT3 (Homo sapiens, UniProt P36888); assay: scanMAX kinase panel
T2 sequence (P36888 27-993): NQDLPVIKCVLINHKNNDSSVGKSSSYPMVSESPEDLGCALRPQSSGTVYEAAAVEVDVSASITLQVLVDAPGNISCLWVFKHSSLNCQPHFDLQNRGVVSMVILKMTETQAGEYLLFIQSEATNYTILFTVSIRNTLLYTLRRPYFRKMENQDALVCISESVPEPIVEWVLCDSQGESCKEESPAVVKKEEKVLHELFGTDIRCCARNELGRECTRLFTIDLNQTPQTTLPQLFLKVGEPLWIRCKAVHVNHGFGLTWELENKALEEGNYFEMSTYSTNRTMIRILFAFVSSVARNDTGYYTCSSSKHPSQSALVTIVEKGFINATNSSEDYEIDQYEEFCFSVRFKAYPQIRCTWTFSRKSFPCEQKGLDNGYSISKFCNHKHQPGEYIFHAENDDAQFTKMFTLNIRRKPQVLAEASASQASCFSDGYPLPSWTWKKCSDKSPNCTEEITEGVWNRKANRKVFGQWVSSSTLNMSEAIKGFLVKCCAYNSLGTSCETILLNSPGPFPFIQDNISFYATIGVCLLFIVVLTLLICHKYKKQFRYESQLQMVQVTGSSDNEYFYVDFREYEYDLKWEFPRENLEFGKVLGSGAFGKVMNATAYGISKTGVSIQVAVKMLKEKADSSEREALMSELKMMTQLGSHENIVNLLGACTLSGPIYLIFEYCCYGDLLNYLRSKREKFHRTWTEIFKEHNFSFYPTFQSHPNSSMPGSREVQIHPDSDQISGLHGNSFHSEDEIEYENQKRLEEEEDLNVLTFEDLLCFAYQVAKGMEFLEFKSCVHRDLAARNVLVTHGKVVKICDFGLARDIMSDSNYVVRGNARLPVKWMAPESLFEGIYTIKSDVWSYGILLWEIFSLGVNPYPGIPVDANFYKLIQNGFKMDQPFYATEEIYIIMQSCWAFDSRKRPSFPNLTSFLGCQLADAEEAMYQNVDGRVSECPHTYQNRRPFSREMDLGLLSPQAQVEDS

[5] = target: T3, TYRO3 (Homo sapiens, UniProt Q06418); assay: scanMAX kinase panel
T3 sequence (Q06418 41-890): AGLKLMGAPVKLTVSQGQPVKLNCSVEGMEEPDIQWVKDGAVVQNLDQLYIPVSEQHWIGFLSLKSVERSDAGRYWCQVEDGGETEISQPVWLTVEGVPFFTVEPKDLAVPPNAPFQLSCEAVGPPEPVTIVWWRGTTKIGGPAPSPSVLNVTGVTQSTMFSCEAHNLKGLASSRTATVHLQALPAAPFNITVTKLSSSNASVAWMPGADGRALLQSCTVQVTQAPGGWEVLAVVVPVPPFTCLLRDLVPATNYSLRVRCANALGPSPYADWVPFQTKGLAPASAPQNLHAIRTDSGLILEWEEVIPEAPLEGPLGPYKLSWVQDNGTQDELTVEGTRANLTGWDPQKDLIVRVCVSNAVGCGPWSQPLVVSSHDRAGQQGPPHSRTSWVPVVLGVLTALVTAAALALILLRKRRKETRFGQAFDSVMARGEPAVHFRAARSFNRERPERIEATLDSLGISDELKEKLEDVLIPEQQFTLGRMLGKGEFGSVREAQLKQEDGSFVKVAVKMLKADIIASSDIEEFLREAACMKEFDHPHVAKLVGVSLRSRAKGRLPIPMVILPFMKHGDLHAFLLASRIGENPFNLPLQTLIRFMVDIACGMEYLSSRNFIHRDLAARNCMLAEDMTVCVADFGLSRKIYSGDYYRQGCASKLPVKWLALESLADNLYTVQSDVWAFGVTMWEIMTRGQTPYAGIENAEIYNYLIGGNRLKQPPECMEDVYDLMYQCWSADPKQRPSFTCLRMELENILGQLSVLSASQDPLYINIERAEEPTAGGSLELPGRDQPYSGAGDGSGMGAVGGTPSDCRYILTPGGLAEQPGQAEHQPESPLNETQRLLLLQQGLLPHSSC

[6] = target: DDR1 (Homo sapiens, UniProt Q08345); assay: scanMAX kinase panel
Sequence of DDR1 (Q08345 19-913): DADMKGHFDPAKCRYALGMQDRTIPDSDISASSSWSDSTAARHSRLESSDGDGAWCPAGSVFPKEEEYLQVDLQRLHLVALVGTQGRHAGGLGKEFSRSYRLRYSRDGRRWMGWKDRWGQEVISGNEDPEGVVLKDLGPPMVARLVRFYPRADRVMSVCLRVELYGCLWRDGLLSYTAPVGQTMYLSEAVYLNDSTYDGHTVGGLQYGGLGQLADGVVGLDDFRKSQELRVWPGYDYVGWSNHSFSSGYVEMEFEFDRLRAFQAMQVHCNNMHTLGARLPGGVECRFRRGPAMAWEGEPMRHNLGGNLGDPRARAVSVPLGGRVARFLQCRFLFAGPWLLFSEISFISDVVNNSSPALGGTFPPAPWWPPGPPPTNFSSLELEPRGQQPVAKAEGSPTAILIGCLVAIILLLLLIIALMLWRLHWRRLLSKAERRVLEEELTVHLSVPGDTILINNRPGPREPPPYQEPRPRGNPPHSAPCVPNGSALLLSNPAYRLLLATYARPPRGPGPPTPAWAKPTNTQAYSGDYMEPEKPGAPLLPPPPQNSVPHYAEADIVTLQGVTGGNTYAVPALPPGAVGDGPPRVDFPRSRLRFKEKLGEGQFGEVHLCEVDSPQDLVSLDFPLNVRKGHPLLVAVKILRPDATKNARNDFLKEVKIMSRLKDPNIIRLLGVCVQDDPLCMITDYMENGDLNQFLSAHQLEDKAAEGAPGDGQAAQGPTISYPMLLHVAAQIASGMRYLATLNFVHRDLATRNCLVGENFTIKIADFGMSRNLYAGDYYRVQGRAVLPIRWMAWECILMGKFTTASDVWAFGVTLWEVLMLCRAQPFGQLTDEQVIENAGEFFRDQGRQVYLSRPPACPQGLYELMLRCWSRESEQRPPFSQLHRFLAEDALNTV

[7] = target: VEGFR2 (Homo sapiens, UniProt P35968); assay: scanMAX kinase panel
Sequence of VEGFR2 (P35968 20-1356): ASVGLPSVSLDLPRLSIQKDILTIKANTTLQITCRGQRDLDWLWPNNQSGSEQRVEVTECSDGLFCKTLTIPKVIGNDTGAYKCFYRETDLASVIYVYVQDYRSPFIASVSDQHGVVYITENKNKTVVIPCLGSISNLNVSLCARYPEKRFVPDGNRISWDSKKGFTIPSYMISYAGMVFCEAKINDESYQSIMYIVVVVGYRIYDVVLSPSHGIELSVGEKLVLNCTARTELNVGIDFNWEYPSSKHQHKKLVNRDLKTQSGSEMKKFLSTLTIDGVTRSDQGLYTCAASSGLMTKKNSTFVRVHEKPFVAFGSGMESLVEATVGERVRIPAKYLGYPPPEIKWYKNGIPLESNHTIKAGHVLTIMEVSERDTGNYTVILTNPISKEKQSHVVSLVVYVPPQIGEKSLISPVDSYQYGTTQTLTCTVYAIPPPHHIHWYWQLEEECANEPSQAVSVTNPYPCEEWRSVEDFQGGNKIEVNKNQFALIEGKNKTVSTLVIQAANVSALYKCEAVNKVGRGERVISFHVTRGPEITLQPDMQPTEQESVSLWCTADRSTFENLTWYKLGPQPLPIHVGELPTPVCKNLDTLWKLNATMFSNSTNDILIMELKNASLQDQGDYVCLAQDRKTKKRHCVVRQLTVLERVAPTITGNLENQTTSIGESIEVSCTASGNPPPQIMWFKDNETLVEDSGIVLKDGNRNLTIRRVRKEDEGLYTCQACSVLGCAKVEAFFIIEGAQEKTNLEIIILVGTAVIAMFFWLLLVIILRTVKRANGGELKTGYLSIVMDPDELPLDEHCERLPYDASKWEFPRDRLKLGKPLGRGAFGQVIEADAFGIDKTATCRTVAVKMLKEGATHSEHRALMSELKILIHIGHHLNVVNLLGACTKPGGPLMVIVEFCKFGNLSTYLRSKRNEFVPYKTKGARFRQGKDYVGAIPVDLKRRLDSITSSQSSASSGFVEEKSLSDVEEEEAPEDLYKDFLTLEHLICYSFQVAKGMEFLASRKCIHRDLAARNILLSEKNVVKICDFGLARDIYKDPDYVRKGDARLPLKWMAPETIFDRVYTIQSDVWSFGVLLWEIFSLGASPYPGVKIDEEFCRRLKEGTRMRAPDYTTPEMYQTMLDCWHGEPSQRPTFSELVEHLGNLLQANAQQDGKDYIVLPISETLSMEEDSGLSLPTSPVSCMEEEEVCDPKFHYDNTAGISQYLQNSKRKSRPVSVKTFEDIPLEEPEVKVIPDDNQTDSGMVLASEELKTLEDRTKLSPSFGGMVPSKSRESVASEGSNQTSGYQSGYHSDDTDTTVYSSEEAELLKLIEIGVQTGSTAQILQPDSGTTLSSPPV

[8] = 72 hours, CellTiter-Glo, 2% FBS

Cn1ncc2cc(Oc3ccc(NC(=O)c4ccc(CO)n(-c5ccc(F)cc5)c4=O)cc3F)c(-c3cn[nH]c3)cc21 [M2]
IC50 [1, 8]: 102 nM
% Inhibition at 0.2 μM, AXL [2]: 100%
% Inhibition at 0.2 μM, PDGFRA [3]: 70%
% Inhibition at 0.2 μM, FLT3 [4]: 97%
% Inhibition at 0.2 μM, TYRO3 [5]: 97%
% Inhibition at 0.2 μM, DDR1 [6]: 100%
% Inhibition at 0.2 μM, VEGFR2 [7]: 43%

Cc1ccc(C(=O)Nc2ccc(Oc3cc4cnn(C)c4cc3-c3cn[nH]c3)c(F)c2)c(=O)n1-c1ccc(F)cc1 [Merestinib]
IC50 ([1]; Homo sapiens, KM12, 72 h): 10 nM
inhibition at 0.2 µM ([2]; read-out: % Inhibition at 0.2 μM, AXL): 100%
% Inhibition at 0.2 μM, PDGFRA [3]: 55%
% Inhibition at 0.2 μM, FLT3 [4]: 95%
% Inhibition at 0.2 μM, TYRO3 [5]: 99%
% Inhibition at 0.2 μM, DDR1 [6]: 100%
% Inhibition at 0.2 μM, VEGFR2 [7]: 63%

Cc1ccc(C(=O)Nc2ccc(Oc3cc4cn[nH]c4cc3-c3cn[nH]c3)c(F)c2)c(=O)n1-c1ccc(F)cc1 [M1]
IC50 [1, 8]: 16 nM
% Inhibition at 0.2 μM, AXL [2]: 99%
% Inhibition at 0.2 μM, PDGFRA [3]: 80%
% Inhibition at 0.2 μM, FLT3 [4]: 96%
% Inhibition at 0.2 μM, TYRO3 [5]: 100%
% Inhibition at 0.2 μM, DDR1 [6]: 100%
% Inhibition at 0.2 μM, VEGFR2 [7]: 72%

From publication PMC5862616 (Oncotarget, 2018)
